This is an account of results in patent US12612410B2 (CHILDREN'S HOSPITAL MEDICAL CENTER, priority 2020, dated 2026).

The term IC50 denotes the concentration that inhibits the measured activity by half.

The test system of one assay is MOLM14 D835Y cells. Description: MOLM14 D835Y cell viability assay (Cell Titer Glo). It counts as cell-based. The settings on record: Homo sapiens, MOLM-14, 48 h. In short, it runs like this: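 MOLM14 cells carrying FLT3 D835Y or F691L were seeded at 1000 cells/well in RPMI-1640 with 20% FBS and dosed at 22 concentrations, 1:2 dilutions from 10 μM. Viability after 48 h by Cell Titer Glo luminescence; 2.3 μM bortezomib as cytotoxic control.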
Background: ATP-based viability assays read luminescence as a measure of living cells.

In the next assay the target is T1, FLT3 (Homo sapiens, UniProt P36888).
T1 sequence (P36888 27-993): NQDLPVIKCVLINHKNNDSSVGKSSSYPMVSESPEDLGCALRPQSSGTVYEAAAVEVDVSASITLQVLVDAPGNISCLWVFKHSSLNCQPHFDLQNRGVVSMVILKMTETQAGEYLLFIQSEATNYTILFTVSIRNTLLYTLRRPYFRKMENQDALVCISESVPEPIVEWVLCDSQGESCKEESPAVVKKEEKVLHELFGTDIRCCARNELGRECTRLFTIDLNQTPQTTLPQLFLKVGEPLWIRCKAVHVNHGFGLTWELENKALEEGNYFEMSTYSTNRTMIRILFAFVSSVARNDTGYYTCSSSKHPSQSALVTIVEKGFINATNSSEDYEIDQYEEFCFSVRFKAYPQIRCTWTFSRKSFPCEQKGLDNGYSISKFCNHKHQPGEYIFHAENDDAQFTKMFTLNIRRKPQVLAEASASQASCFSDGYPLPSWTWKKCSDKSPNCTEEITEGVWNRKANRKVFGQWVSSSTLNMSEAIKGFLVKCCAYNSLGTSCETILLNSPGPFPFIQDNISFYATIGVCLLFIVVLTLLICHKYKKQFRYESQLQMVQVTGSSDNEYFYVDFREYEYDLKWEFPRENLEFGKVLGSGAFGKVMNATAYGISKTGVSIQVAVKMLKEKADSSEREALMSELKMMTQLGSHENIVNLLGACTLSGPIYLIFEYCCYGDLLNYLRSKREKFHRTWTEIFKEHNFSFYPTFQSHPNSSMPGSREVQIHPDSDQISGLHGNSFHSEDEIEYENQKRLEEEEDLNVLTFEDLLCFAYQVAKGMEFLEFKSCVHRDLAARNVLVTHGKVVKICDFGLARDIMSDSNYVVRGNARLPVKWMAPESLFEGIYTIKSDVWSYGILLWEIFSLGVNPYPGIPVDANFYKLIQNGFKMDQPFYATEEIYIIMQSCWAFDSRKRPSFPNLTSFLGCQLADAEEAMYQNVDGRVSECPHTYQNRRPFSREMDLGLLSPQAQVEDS
Description: RBC HotSpot Kinase Assay, FLT3. It counts as biochemical. Also noted: purchased Reaction Biology (RBC), HotSpot kinase assay. As to conditions: isolated kinase, 33P-ATP. In short, it runs like this:
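Isolated recombinant kinase (possibly truncated or catalytic-domain form) was preincubated with compound for 20 min at room temp in 20 mM Hepes pH 7.5, 10 mM MgCl2, 1 mM EGTA, 0.01% Brij35, 1% DMSO with substrate; 33P-ATP started a 2 h room-temperature reaction, read by P81 filter binding.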

With `O=C1CCCN1c1cn2c(-c3cccc(N[C@H]4CNCC[C@@H]4F)n3)cnc2cn1` [Compound 119, 1-(3-(6-(((3S,4S)-4-fluoropiperidin-3-yl)amino)pyridin-2-yl)imidazo[1,2-a]pyrazin-6-yl)pyrrolidin-2-one], the figures for the IC50 in the assay on MOLM14 D835Y cells and on FLT3 were 19 nM and less than 0.5 nM, respectively.

Consider `O=C1CCCN1c1cn2c(-c3cccc(N[C@H]4CNC[C@@H]4F)n3)cnc2cn1` [Compound 121, 1-(3-(6-(((3S,4S)-4-fluoropyrrolidin-3-yl)amino)pyridin-2-yl)imidazo[1,2-a]pyrazin-6-yl)pyrrolidin-2-one], for which the IC50 in the assay with MOLM14 D835Y cells is 23 nM; at FLT3, less than 0.5 nM.

For `CC(C)(C)c1cn2c(-c3nc(N[C@H]4CNC[C@@H]4F)c(F)cc3F)cnc2cn1` [Compound 125], the half-maximal inhibitory concentration (IC50) is 163 nM in the assay with MOLM14 D835Y cells and less than 0.5 nM on FLT3.

As to `CC(C)(C)c1cn2c(-c3nc(N[C@@H]4CCCNC4)c(F)cc3F)cnc2cn1` [Compound 126, (R)-6-(6-(tert-butyl)imidazo[1,2-a]pyrazin-3-yl)-3,5-difluoro-N-(piperidin-3-yl)pyridin-2-amine], the figures for the 50% inhibitory concentration (IC50) in the assay with MOLM14 D835Y cells and at FLT3 were 21 nM and less than 0.5 nM, respectively.

In the case of `CC(C)(C)c1cn2c(-c3nc(N[C@H]4CNCC[C@@H]4F)c(F)cc3F)cnc2cn1` [Compound 127, 6-(6-(tert-butyl)imidazo[1,2-a]pyrazin-3-yl)-3,5-difluoro-N-((3S,4S)-4-fluoropiperidin-3-yl)pyridin-2-amine], the IC50 with MOLM14 D835Y cells is 44 nM; against FLT3 it was less than 0.5 nM.

Consider `CC(C)(C)c1cn2c(-c3cccc(N[C@@H]4CCCNC4)n3)cnc2cn1` [Compound 129, (R)-6-(6-(tert-butyl)imidazo[1,2-a]pyrazin-3-yl)-N-(piperidin-3-yl)pyridin-2-amine], for which the figures for the IC50 in the assay with MOLM14 D835Y cells and against FLT3 were 33 nM and less than 0.5 nM, respectively.

Turning to `CC(C)(C)c1cn2c(-c3cccc(N[C@H]4CNCC[C@@H]4F)n3)cnc2cn1` [Compound 130, 6-(6-(tert-butyl)imidazo[1,2-a]pyrazin-3-yl)-N-((3S,4S)-4-fluoropiperidin-3-yl)pyridin-2-amine], the IC50 is 26 nM with MOLM14 D835Y cells and less than 0.5 nM against FLT3.
